# Laboratory results reported in the supplement of paper PMC4932681.
# Structures can show the parent of a compound that is named as a salt.
# Tests used:
# [1] = tested on: MCF-7 Tam1; experiment: relative IC50 (midpoint of fitted logistic curve, plateau may be below 50% inhibition; CellTiter-Glo viability); higher = less potent; details: 4-OH-tamoxifen in medium 1 µM; 72 h
# In short: (§1)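 Breast cancer cell lines and their resistant derivatives were seeded into 384-well plates holding FO2Baq library drugs at five concentrations spanning a 10 000-fold range. Resistant lines were in medium with 1 μM of the selecting drug. Cells were incubated 72 h at 37 °C, and CellTiter-Glo viability was read on a PHERAstar and normalised to vehicle-only and positive controls. Drug sensitivity score, relative IC50 (curve midpoint) and top-dose inhibition came from logistic dose–response fits (Breeze pipeline).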
# [2] = tested on: ZR-75-1; experiment: as above; details: 72 h
# In short: as §1
# [3] = tested on: BT-474 Tam1; experiment: as above; details: 4-OH-tamoxifen in medium 1 µM; 72 h
# In short: as §1
# [4] = tested on: MCF-7; experiment: as above; details: 72 h
# In short: as §1
# [5] = tested on: BT-474 Tam2; experiment: as above; details: 4-OH-tamoxifen in medium 1 µM; 72 h
# In short: as §1
# [6] = tested on: T-47D Tam1; experiment: as above; details: 4-OH-tamoxifen in medium 1 µM; 72 h
# In short: as §1
# [7] = tested on: BT-474; experiment: as above; details: 72 h
# In short: as §1
# [8] = tested on: T-47D; experiment: as above; details: 72 h
# In short: as §1
# [9] = tested on: ZR-75-1 Tam1; experiment: as above; details: 4-OH-tamoxifen in medium 1 µM; 72 h
# In short: as §1
# [10] = tested on: ZR-75-1 Tam2; experiment: as above; details: 4-OH-tamoxifen in medium 1 µM; 72 h
# In short: as §1
# [11] = tested on: T-47D Tam2; experiment: as above; details: 4-OH-tamoxifen in medium 1 µM; 72 h
# In short: as §1
# [12] = tested on: MCF-7 Tam1; experiment: drug sensitivity score (DSS) (DSS (dimensionless)); higher = more sensitive; extreme values may be limits of the assay; details: 4-OH-tamoxifen in medium 1 µM; 72 h
# In short: as §1
# [13] = tested on: ZR-75-1; experiment: as above; details: 72 h
# In short: as §1
# [14] = tested on: BT-474 Tam1; experiment: as above; details: 4-OH-tamoxifen in medium 1 µM; 72 h
# In short: as §1
# [15] = tested on: MCF-7; experiment: as above; details: 72 h
# In short: as §1
# [16] = tested on: BT-474 Tam2; experiment: as above; details: 4-OH-tamoxifen in medium 1 µM; 72 h
# In short: as §1
# [17] = tested on: T-47D Tam1; experiment: as above; details: 4-OH-tamoxifen in medium 1 µM; 72 h
# In short: as §1
# [18] = tested on: BT-474; experiment: as above; details: 72 h
# In short: as §1
# [19] = tested on: T-47D; experiment: as above; details: 72 h
# In short: as §1
# [20] = tested on: ZR-75-1 Tam1; experiment: as above; details: 4-OH-tamoxifen in medium 1 µM; 72 h
# In short: as §1
# [21] = tested on: ZR-75-1 Tam2; experiment: as above; details: 4-OH-tamoxifen in medium 1 µM; 72 h
# In short: as §1
# [22] = tested on: T-47D Tam2; experiment: as above; details: 4-OH-tamoxifen in medium 1 µM; 72 h
# In short: as §1
SMILES,relative IC50 [1],relative IC50 [3],relative IC50 ([4]; 4-OH-tamoxifen in medium 0 µM),relative IC50 ([4]; 4-OH-tamoxifen in medium 1 µM),relative IC50 [5],relative IC50 [6],relative IC50 ([7]; 4-OH-tamoxifen in medium 0 µM),relative IC50 ([7]; 4-OH-tamoxifen in medium 1 µM),relative IC50 ([8]; 4-OH-tamoxifen in medium 0 µM),relative IC50 ([8]; 4-OH-tamoxifen in medium 1 µM),relative IC50 [11],relative IC50 ([2]; 4-OH-tamoxifen in medium 0 µM),relative IC50 ([2]; 4-OH-tamoxifen in medium 1 µM),relative IC50 [9],relative IC50 [10],drug sensitivity score [12],drug sensitivity score ([13]; 4-OH-tamoxifen in medium 0 µM),drug sensitivity score ([13]; 4-OH-tamoxifen in medium 1 µM),drug sensitivity score [14],drug sensitivity score ([15]; 4-OH-tamoxifen in medium 0 µM),drug sensitivity score ([15]; 4-OH-tamoxifen in medium 1 µM),drug sensitivity score [16],drug sensitivity score [17],drug sensitivity score ([18]; 4-OH-tamoxifen in medium 0 µM),drug sensitivity score ([18]; 4-OH-tamoxifen in medium 1 µM),drug sensitivity score ([19]; 4-OH-tamoxifen in medium 0 µM),drug sensitivity score ([19]; 4-OH-tamoxifen in medium 1 µM),drug sensitivity score [20],drug sensitivity score [21],drug sensitivity score [22]
CO[C@H]1/C=C\C=C(/C)C(=O)NC2=CC(=O)C(NCCN(C)C)=C(C[C@@H](C)C[C@H](OC)[C@H](O)[C@@H](C)/C=C(\C)[C@@H]1OC(N)=O)C2=O [Alvespimycin (17-DMAG)],0.048 µM,0.0153 µM,0.0225 µM,0.03 µM,0.0146 µM,0.424 µM,0.0131 µM,0.00888 µM,0.259 µM,0.142 µM,0.196 µM,0.0858 µM,0.0752 µM,0.095 µM,0.071 µM,4.36,3.36,6.21,16.9,12.6,8.71,17.6,1.14,12.2,19.4,3.17,3.41,3.49,5.93,3.87
CN1CC[C@H](c2c(O)cc(O)c3c(=O)cc(-c4ccccc4Cl)oc23)[C@H](O)C1 [Alvocidib (Flavopiridol)],0.316 µM,0.217 µM,0.187 µM,0.515 µM,0.363 µM,0.174 µM,–,0.388 µM,0.408 µM,> 10 µM,0.184 µM,0.251 µM,0.246 µM,0.477 µM,0.355 µM,4.64,10.4,9.96,19.8,13.6,9.86,16.9,16.8,1.69,14.1,7.14,0,7.64,10.1,7.73
NCCCNCCSP(=O)(O)O [Amifostine],> 10 µM,> 10 µM,> 10 µM,> 10 µM,> 10 µM,> 10 µM,> 10 µM,> 10 µM,> 10 µM,> 10 µM,> 10 µM,> 10 µM,> 10 µM,> 10 µM,> 10 µM,0,0,0,0,0,0,0,0,0,0,0,0,0,0,0
Cn1c(CCCC(=O)O)nc2cc(N(CCCl)CCCl)ccc21 [Bendamustine (hydrochloride hydrate)],> 10 µM,> 10 µM,–,> 10 µM,> 10 µM,> 10 µM,> 10 µM,> 10 µM,> 10 µM,> 10 µM,> 10 µM,> 10 µM,> 10 µM,> 10 µM,> 10 µM,0,0,0,0,0.159,0,0,0,0,0,0,0,0,0,0

# Continued, in another order:
relative IC50 [1],relative IC50 [3],relative IC50 ([4]; 4-OH-tamoxifen in medium 0 µM),relative IC50 ([4]; 4-OH-tamoxifen in medium 1 µM),relative IC50 [5],relative IC50 [6],relative IC50 ([7]; 4-OH-tamoxifen in medium 0 µM),relative IC50 ([7]; 4-OH-tamoxifen in medium 1 µM),relative IC50 ([8]; 4-OH-tamoxifen in medium 0 µM),relative IC50 ([8]; 4-OH-tamoxifen in medium 1 µM),relative IC50 [11],SMILES,relative IC50 ([2]; 4-OH-tamoxifen in medium 0 µM),relative IC50 ([2]; 4-OH-tamoxifen in medium 1 µM),relative IC50 [9],relative IC50 [10],drug sensitivity score [12],drug sensitivity score ([13]; 4-OH-tamoxifen in medium 0 µM),drug sensitivity score ([13]; 4-OH-tamoxifen in medium 1 µM),drug sensitivity score [14],drug sensitivity score ([15]; 4-OH-tamoxifen in medium 0 µM),drug sensitivity score ([15]; 4-OH-tamoxifen in medium 1 µM),drug sensitivity score [16],drug sensitivity score [17],drug sensitivity score ([18]; 4-OH-tamoxifen in medium 0 µM),drug sensitivity score ([18]; 4-OH-tamoxifen in medium 1 µM),drug sensitivity score ([19]; 4-OH-tamoxifen in medium 0 µM),drug sensitivity score ([19]; 4-OH-tamoxifen in medium 1 µM),drug sensitivity score [20],drug sensitivity score [21],drug sensitivity score [22]
> 10 µM,> 10 µM,> 10 µM,–,> 10 µM,> 10 µM,> 10 µM,> 10 µM,> 10 µM,> 10 µM,> 10 µM,NCC(=O)CCC(=O)O [Aminolevulinic acid],> 10 µM,> 10 µM,> 10 µM,> 10 µM,0,0,0,0,0,0.809,0,0,0,0,0,0,0,0,0
> 10 µM,> 10 µM,> 10 µM,> 10 µM,> 10 µM,> 10 µM,> 10 µM,> 10 µM,> 10 µM,> 10 µM,> 10 µM,O=C1CN2Cc3c(ccc(Cl)c3Cl)N=C2N1 [Anagrelide],> 10 µM,> 10 µM,> 10 µM,> 10 µM,0,0,0,0,0,0,0,0,0,0,0,0,0,0,0
> 10 µM,> 10 µM,> 10 µM,> 10 µM,> 10 µM,> 10 µM,> 10 µM,> 10 µM,> 10 µM,> 10 µM,> 10 µM,CC(C)(C#N)c1cc(Cn2cncn2)cc(C(C)(C)C#N)c1 [Anastrozole],> 10 µM,> 10 µM,> 10 µM,> 10 µM,0,0,0,0,0,0,0,0,0,0,0,0,0,0,0
